Measurements from patent US6472348B1, “Pyridone derivatives and herbicides” (Kumiai Chemical Industry Co., Ltd., priority 1996, dated 2002).

Columns and labels:
Assay type in all cases: in vivo
pale smartweed (Po) [1] = assay: Test Example 2: herbicidal effects by upland field soil treatment; conditions: 100 g of the active ingredient per 10 ares, 21st day after the application, index 0-5 of Table 47;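 further: grade of growth control; 5 = at least 90%; 4 = 70 to 90%; 3 = 50 to 70%; 2 = 30 to 50%; 1 = 10 to 30%; 0 = under 10%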
Text: (§1) (Test on Herbicidal Effects by Upland Field Soil Treatment)

slender amaranth (Am) [2] = assay: as above; conditions: 100 g of the active ingredient per 10 ares, 21st day after the application, index 0-5 of Table 47
Text: as §1

rice flatsedge (Ci) [3] = assay: as above; conditions: 100 g of the active ingredient per 10 ares, 21st day after the application, index 0-5 of Table 47
Text: as §1

Digitaria ciliaris (Di) = assay: as above; conditions: 100 g of the active ingredient per 10 ares, 21st day after the application, index 0-5 of Table 47;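 further: grade of growth control; 5 = at least 90%; 4 = 70 to 90%; 3 = 50 to 70%; 2 = 30 to 50%; 1 = 10 to 30%; 0 = under 10%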
Text: as §1

barnyardgrass (Ec) [4] = assay: as above; conditions: 100 g of the active ingredient per 10 ares, 21st day after the application, index 0-5 of Table 47
Text: as §1

[5] = test system: common lambsquarters (Ch); assay: as above; conditions: 100 g of the active ingredient per 10 ares, 21st day after the application, index 0-5 of Table 47
Text: as §1

pale smartweed (Po) [6] = assay: Test Example 3: herbicidal effects by upland field foliage treatment; set-up: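 grade of growth control; 5 = at least 90%; 4 = 70 to 90%; 3 = 50 to 70%; 2 = 30 to 50%; 1 = 10 to 30%; 0 = under 10%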; conditions: 100 g of the active ingredient per 10 ares, evaluated on the 14th day after treatment
In short: (§2)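 Post-emergence upland foliage test. Seedlings grown 2 weeks under glass in pots (120 cm^2) of sand, seed topped with soil; treated on the foliage, kept in greenhouse, then assessed at day 14 using rating standards.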

Diaitaria ciliaris (Di) = assay: as above; set-up: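 grade of growth control; 5 = at least 90%; 4 = 70 to 90%; 3 = 50 to 70%; 2 = 30 to 50%; 1 = 10 to 30%; 0 = under 10%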; conditions: 100 g of the active ingredient per 10 ares, evaluated on the 14th day after treatment
In short: as §2

slender amaranth (Am) [7] = assay: as above; set-up: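 grade of growth control; 5 = at least 90%; 4 = 70 to 90%; 3 = 50 to 70%; 2 = 30 to 50%; 1 = 10 to 30%; 0 = under 10%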; conditions: 100 g of the active ingredient per 10 ares, evaluated on the 14th day after treatment
In short: as §2

rice flatsedge (Ci) [8] = assay: as above; set-up: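 grade of growth control; 5 = at least 90%; 4 = 70 to 90%; 3 = 50 to 70%; 2 = 30 to 50%; 1 = 10 to 30%; 0 = under 10%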; conditions: 100 g of the active ingredient per 10 ares, evaluated on the 14th day after treatment
In short: as §2

barnyardgrass (Ec) [9] = assay: as above; set-up: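 grade of growth control; 5 = at least 90%; 4 = 70 to 90%; 3 = 50 to 70%; 2 = 30 to 50%; 1 = 10 to 30%; 0 = under 10%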; conditions: 100 g of the active ingredient per 10 ares, evaluated on the 14th day after treatment
In short: as §2

[10] = test system: common lambsquarters (Ch); assay: as above; set-up: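 grade of growth control; 5 = at least 90%; 4 = 70 to 90%; 3 = 50 to 70%; 2 = 30 to 50%; 1 = 10 to 30%; 0 = under 10%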; conditions: 100 g of the active ingredient per 10 ares, evaluated on the 14th day after treatment
In short: as §2

monochoria (Mo) = assay: Test Example 1: herbicidal effects by paddy field soil treatment; conditions: 100 g of the active ingredient per 10 ares, 21st day after the application, index 0-5 of Table 47;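 further: grade of growth control; 5 = at least 90%; 4 = 70 to 90%; 3 = 50 to 70%; 2 = 30 to 50%; 1 = 10 to 30%; 0 = under 10%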
In short: (§3)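 Greenhouse pot test in flooded paddy soil, dosed at 100 g a.i. per 10 ares; effect scored on day 21.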

barnyardgrass (Ec) [11] = assay: as above; conditions: 100 g of the active ingredient per 10 ares, 21st day after the application, index 0-5 of Table 47
In short: as §3

bulrush (Sc) = assay: as above; conditions: 100 g of the active ingredient per 10 ares, 21st day after the application, index 0-5 of Table 47;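 further: grade of growth control; 5 = at least 90%; 4 = 70 to 90%; 3 = 50 to 70%; 2 = 30 to 50%; 1 = 10 to 30%; 0 = under 10%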
In short: as §3

SMILES	Herbicidal effects Po (pale smartweed (Po) [1])	Herbicidal effects Am (slender amaranth (Am) [2])	Herbicidal effects Ci (rice flatsedge (Ci) [3])	Herbicidal effects Di (Digitaria ciliaris (Di))	Herbicidal effects Ec (barnyardgrass (Ec) [4])	Herbicidal effects Ch [5]	Herbicidal effects Po (pale smartweed (Po) [6])	Herbicidal effects Di (Diaitaria ciliaris (Di))	Herbicidal effects Am (slender amaranth (Am) [7])	Herbicidal effects Ci (rice flatsedge (Ci) [8])	Herbicidal effects Ec (barnyardgrass (Ec) [9])	Herbicidal effects Ch [10]	Herbicidal effects Mo (monochoria (Mo))	Herbicidal effects Ec (barnyardgrass (Ec) [11])	Herbicidal effects Sc (bulrush (Sc))
Cn1c(C(F)(F)F)ccc(-c2cc(C3OCCO3)c(Cl)cc2F)c1=O [1-133]	5	5	5	5	5	5	5	5	5	5	5	5	5	5	5
Cn1c(C(F)(F)F)ccc(-c2cc(CO)c(Cl)cc2F)c1=O [1-135]	5	5	5	5	5	5	5	5	5	5	5	5	5	5	5
CCS(=O)(=O)N(C)c1cc(-c2ccc(C(F)(F)F)n(C)c2=O)c(F)cc1Cl [1-140]	5	5	5	5	5	5	5	5	5	5	4	5	5	5	5
Cn1c(C(F)(F)F)ccc(-c2cc(C(=O)[O-])c(Cl)cc2F)c1=O.[Na+] [1-144]	5	5	5	5	5	5	5	5	5	5	5	5	5	5	5
CCCCOC(=O)COc1cc(-c2ccc(C(F)(F)F)n(C)c2=O)c(F)cc1Cl [1-148]	5	5	5	5	5	5	5	5	5	5	5	5	5	5	5
CCCCCCOC(=O)COc1cc(-c2ccc(C(F)(F)F)n(C)c2=O)c(F)cc1Cl [1-149]	5	5	5	5	5	5	5	5	5	5	5	5	5	5	5
CC=CCOc1cc(-c2ccc(C(F)(F)F)n(C)c2=O)c(F)cc1Cl [1-152]	5	5	5	5	5	5	5	5	5	5	5	5	5	5	5
COC(=O)c1cc(-c2ccc(C(F)(F)F)n(C)c2=O)c(F)cc1Cl [1-157]	5	5	5	5	5	5	5	5	5	5	5	5	5	5	5
CC(Oc1cc(-c2ccc(C(F)(F)F)n(C)c2=O)c(F)cc1Cl)C1CC1 (stereo not drawn) [1-161]	5	5	5	5	5	5	5	5	5	5	5	5	5	5	5
CCOCCOc1cc(-c2ccc(C(F)(F)F)n(C)c2=O)c(F)cc1Cl [1-163]	5	5	5	5	5	5	5	5	5	5	5	5	5	5	5
Cn1c(C(F)(F)F)ccc(-c2cc(C=NO)c(Cl)cc2F)c1=O [1-164]	5	5	5	5	5	5	5	5	5	5	5	5	5	5	5
Cn1c(C(F)(F)F)ccc(-c2cc(SC3CCCO3)c(Cl)cc2F)c1=O (stereo not drawn) [1-165]	5	5	5	5	5	5	5	5	5	5	5	5	5	5	5
CCCCOc1cc(-c2ccc(C(F)(F)F)n(C)c2=O)c(F)cc1Cl [1-166]	5	5	5	5	5	5	5	5	5	5	4	5	5	5	5
